Test results from patent US9556179B2 (BRISTOL-MYERS SQUIBB COMPANY, priority 2012, dated 2017).

Experiments:
CK1ε = CK1ε (Homo sapiens (Human), UniProt P49674); test: CK1ε kinase assay (Caliper LABCHIP electrophoretic separation of fluoresceinated peptide substrate and product); assay type: biochemical; conditions: 200 pM enzyme, 50 μM ATP, 22 hours at room temperature
Procedure, shortened: (§1)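 Kinase reactions ran 22 h at room temperature, were stopped with EDTA, and phosphorylated product was separated electrophoretically from unphosphorylated fluoresceinated peptide. Compounds were tested at eleven concentrations from 10 mM DMSO stocks. IC50 by non-linear regression.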

CK1δ = CK1δ (Homo sapiens (Human), UniProt P48730); test: CK1δ kinase assay (Caliper LABCHIP electrophoretic separation of fluoresceinated peptide substrate and product); assay type: biochemical; conditions: 200 pM enzyme, 50 μM ATP, 22 hours at room temperature
CK1δ, sequence (P48730 whole entry): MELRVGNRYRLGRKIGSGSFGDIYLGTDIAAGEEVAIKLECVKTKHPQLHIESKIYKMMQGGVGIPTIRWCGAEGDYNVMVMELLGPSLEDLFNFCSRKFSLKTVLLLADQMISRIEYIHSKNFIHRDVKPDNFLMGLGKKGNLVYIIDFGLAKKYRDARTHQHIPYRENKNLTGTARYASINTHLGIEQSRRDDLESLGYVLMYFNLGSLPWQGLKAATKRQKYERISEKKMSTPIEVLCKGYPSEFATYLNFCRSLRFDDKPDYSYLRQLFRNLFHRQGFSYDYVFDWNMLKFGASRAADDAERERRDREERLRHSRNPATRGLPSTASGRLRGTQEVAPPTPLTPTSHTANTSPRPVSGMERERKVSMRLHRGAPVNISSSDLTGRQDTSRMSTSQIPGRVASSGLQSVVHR
Procedure, shortened: as §1

CK1ε, sequence (P49674 whole entry): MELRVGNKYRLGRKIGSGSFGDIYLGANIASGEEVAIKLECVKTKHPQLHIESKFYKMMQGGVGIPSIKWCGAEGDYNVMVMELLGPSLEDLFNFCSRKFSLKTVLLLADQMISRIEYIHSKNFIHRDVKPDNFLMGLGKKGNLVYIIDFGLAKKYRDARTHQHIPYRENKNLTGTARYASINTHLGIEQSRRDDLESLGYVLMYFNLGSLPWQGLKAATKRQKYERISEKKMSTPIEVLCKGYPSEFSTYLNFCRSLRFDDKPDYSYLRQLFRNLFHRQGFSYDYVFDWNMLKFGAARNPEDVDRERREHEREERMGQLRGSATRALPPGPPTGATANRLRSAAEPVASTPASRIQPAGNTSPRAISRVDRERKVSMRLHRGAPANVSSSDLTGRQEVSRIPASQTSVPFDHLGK

Row | SMILES | IC50 (CK1ε) [nM] | IC50 (CK1δ) [nM]
1 | Cc1nc(-c2ccc(F)cc2)c(-c2ccc3nc(NC(=O)c4snnc4-c4ccccc4)cn3n2)n1C [Compound 340, N-(6-(4-(4-fluorophenyl)-1,2-dimethyl-1H-imidazol-5-yl)imidazo[1,2-b]pyridazin-2-yl)-4-phenyl-1,2,3-thiadiazole-5-carboxamide] | 6.28 | 0.4
2 | Cc1nc(-c2ccc(F)cc2)c(-c2ccc3nc(NC(=O)c4cc5c(F)cccc5[nH]4)cn3n2)n1C [Compound 341, 4-fluoro-N-(6-(4-(4-fluoro-phenyl)-1,2-dimethyl-1H-imidazol-5-yl)imidazo[1,2-b]pyridazin-2-yl)-1H-indole-2-carboxamide] | 8.85 | 1.32
3 | Cc1nc(-c2ccc(F)cc2)c(-c2ccc3nc(NC(=O)c4c[nH]c5ccccc45)cn3n2)n1C [Compound 342, N-(6-(4-(4-fluorophenyl)-1,2-dimethyl-1H-imidazol-5-yl)imidazo[1,2-b]pyridazin-2-yl)-1H-indole-3-carboxamide] | 4.89 | 1.41
4 | Cc1nc(-c2ccc(F)cc2)c(-c2ccc3nc(NC(=O)c4c[nH]c5ncccc45)cn3n2)n1C [Compound 343, N-(6-(4-(4-fluorophenyl)-1,2-dimethyl-1H-imidazol-5-yl)imidazo[1,2-b]pyridazin-2-yl)-1H-pyrrolo[2,3-b] pyridine-3-carboxamide] | 2.17 | 0.921
5 | Cc1nc(-c2ccc(F)cc2)c(-c2ccc3nc(NC(=O)c4cccc5cccnc45)cn3n2)n1C [Compound 344, N-(6-(4-(4-fluorophenyl)-1,2-dimethyl-1H-imidazol-5-yl)imidazo[1,2-b]pyridazin-2-yl)-8-quinolinecarboxamide] | 113 | 14.5
6 | COc1cccc2[nH]c(C(=O)Nc3cn4nc(-c5c(-c6ccc(F)cc6)nc(C)n5C)ccc4n3)cc12 [Compound 347, N-(6-(4-(4-fluorophenyl)-1,2-dimethyl-1H-imidazol-5-yl)imidazo[1,2-b]pyridazin-2-yl)-4-methoxy-1H-indole-2-carboxamide] | 1.19 | 0.379
7 | Cc1nc(-c2ccc(F)cc2)c(-c2ccc3nc(NC(=O)c4ccnn4C)cn3n2)n1C [Compound 352, N-(6-(4-(4-fluorophenyl)-1,2-dimethyl-1H-imidazol-5-yl)imidazo[1,2-b]pyridazin-2-yl)-1-methyl-1H-pyrazole-5-carboxamide] | 3.24 | 0.593
8 | Cc1nc(-c2ccc(F)cc2)c(-c2ccc3nc(NC(=O)c4ccn(C)n4)cn3n2)n1C [Compound 354, N-(6-(4-(4-fluorophenyl)-1,2-dimethyl-1H-imidazol-5-yl)imidazo[1,2-b]pyridazin-2-yl)-1-methyl-1H-pyrazole-3-carboxamide] | 10.6 | 1.42
9 | Cc1nc(-c2ccc(F)cc2)c(-c2ccc3nc(NC(=O)c4cocn4)cn3n2)n1C [Compound 355, N-(6-(4-(4-fluorophenyl)-1,2-dimethyl-1H-imidazol-5-yl)imidazo[1,2-b]pyridazin-2-yl)-1,3-oxazole-4-carboxamide] | 38.7 | 3.8
10 | Cc1nc(-c2ccc(F)cc2)c(-c2ccc3nc(NC(=O)c4ccc(C#N)cc4)cn3n2)n1C [Compound 356, 4-cyano-N-(6-(4-(4-fluoro-phenyl)-1,2-dimethyl-1H-imidazol-5-yl)imidazo[1,2-b]pyridazin-2-yl)benzamide] | 1.91 | 0.513
11 | Cc1nc(-c2ccc(F)cc2)c(-c2ccc3nc(NC(=O)c4cccn4C)cn3n2)n1C [Compound 357, N-(6-(4-(4-fluorophenyl)-1,2-dimethyl-1H-imidazol-5-yl)imidazo[1,2-b]pyridazin-2-yl)-1-methyl-1H-pyrrole-2-carboxamide] | 17.6 | 1.49
12 | Cc1nocc1C(=O)Nc1cn2nc(-c3c(-c4ccc(F)cc4)nc(C)n3C)ccc2n1 [Compound 361, N-(6-(4-(4-fluorophenyl)-1,2-dimethyl-1H-imidazol-5-yl)imidazo[1,2-b]pyridazin-2-yl)-3-methyl-4-isoxazole-carboxamide] | 1260 | 74.8
13 | Cc1nc(-c2ccc(F)cc2)c(-c2ccc3nc(NC(=O)c4cn(C)cn4)cn3n2)n1C [Compound 362, N-(6-(4-(4-fluorophenyl)-1,2-dimethyl-1H-imidazol-5-yl)imidazo[1,2-b]pyridazin-2-yl)-1-methyl-1H-imidazole-4-carboxamide] | 87.5 | 6.34
14 | Cc1oncc1C(=O)Nc1cn2nc(-c3c(-c4ccc(F)cc4)nc(C)n3C)ccc2n1 [Compound 365, N-(6-(4-(4-fluorophenyl)-1,2-dimethyl-1H-imidazol-5-yl)imidazo[1,2-b]pyridazin-2-yl)-5-methyl-4-isoxazole-carboxamide] | 1110 | 103
15 | Cc1cc(C(=O)Nc2cn3nc(-c4c(-c5ccc(F)cc5)nc(C)n4C)ccc3n2)nn1C [Compound 369, N-(6-(4-(4-fluorophenyl)-1,2-dimethyl-1H-imidazol-5-yl)imidazo[1,2-b]pyridazin-2-yl)-1,5-dimethyl-1H-pyrazole-3-carboxamide] | 8.74 | 1.41
16 | Cc1nc(C(=O)Nc2cn3nc(-c4c(-c5ccc(F)cc5)nc(C)n4C)ccc3n2)co1 [Compound 371, N-(6-(4-(4-fluorophenyl)-1,2-dimethyl-1H-imidazol-5-yl)imidazo[1,2-b]pyridazin-2-yl)-2-methyl-1,3-oxazole-4-carboxamide] | 19.8 | 2.5
17 | Cc1nc(-c2ccc(F)cc2)c(-c2ccc3nc(NC(=O)c4ccc(C#N)nc4)cn3n2)n1C [Compound 374, 6-cyano-N-(6-(4-(4-fluoro-phenyl)-1,2-dimethyl-1H-imidazol-5-yl)imidazo[1,2-b]pyridazin-2-yl)nicotinamide] | 3.95 | 0.399

Continued, values first:

Row | IC50 (CK1ε) [nM] | IC50 (CK1δ) [nM] | SMILES
18 | 5.77 | 1.62 | Cc1nc(-c2ccc(F)cc2)c(-c2ccc3nc(NC(=O)c4cc[nH]c4)cn3n2)n1C [Compound 348, N-(6-(4-(4-fluorophenyl)-1,2-dimethyl-1H-imidazol-5-yl)imidazo[1,2-b]pyridazin-2-yl)-1H-pyrrole-3-carboxamide]
19 | 74.2 | 4.94 | CC(=O)N1CCCC1C(=O)Nc1cn2nc(-c3c(-c4ccc(F)cc4)nc(C)n3C)ccc2n1 [Compound 353, 1-acetyl-N-(6-(4-(4-fluoro-phenyl)-1,2-dimethyl-1H-imidazol-5-yl)imidazo[1,2-b]pyridazin-2-yl)-L-pro-linamide]
20 | 3.92 | 0.534 | Cc1nc(-c2ccc(F)cc2)c(-c2ccc3nc(NC(=O)c4ccc[nH]4)cn3n2)n1C [Compound 358, N-(6-(4-(4-fluorophenyl)-1,2-dimethyl-1H-imidazol-5-yl)imidazo[1,2-b]pyridazin-2-yl)-1H-pyrrole-2-carbox-amide]
21 | 3.17 | 0.599 | Cc1nc(-c2ccc(F)cc2)c(-c2ccc3nc(NC(=O)c4cnn(C)c4)cn3n2)n1C [Compound 359, N-(6-(4-(4-fluorophenyl)-1,2-dimethyl-1H-imidazol-5-yl)imidazo[1,2-b]pyridazin-2-yl)-1-methyl-1H-pyrazole-4-carboxamide]
22 | 26.2 | 2.36 | CC(=O)N1CCCC1C(=O)Nc1cn2nc(-c3c(-c4ccc(F)cc4)nc(C)n3C)ccc2n1 (stereo not drawn) [Compound 363, 1-acetyl-N-(6-(4-(4-fluoro-phenyl)-1,2-dimethyl-1H-imidazol-5-yl)imidazo[1,2-b]pyridazin-2-yl)prolinamide]
23 | 4.01 | 0.566 | Cc1nc(-c2ccc(F)cc2)c(-c2ccc3nc(NC(=O)c4cn[nH]c4)cn3n2)n1C [Compound 364, N-(6-(4-(4-fluorophenyl)-1,2-dimethyl-1H-imidazol-5-yl)imidazo[1,2-b]pyridazin-2-yl)-1H-pyrazole-4-carboxamide]
24 | 25.1 | 1.72 | Cc1nc(-c2ccc(F)cc2)c(-c2ccc3nc(NC(=O)C4CCC(=O)N4)cn3n2)n1C (stereo not drawn) [Compound 366, N-(6-(4-(4-fluorophenyl)-1,2-dimethyl-1H-imidazol-5-yl)imidazo[1,2-b]pyridazin-2-yl)-5-oxoprolinamide]
25 | 49.7 | 3.65 | Cc1nnc(C(=O)Nc2cn3nc(-c4c(-c5ccc(F)cc5)nc(C)n4C)ccc3n2)o1 [Compound 367, N-(6-(4-(4-fluorophenyl)-1,2-dimethyl-1H-imidazol-5-yl)imidazo[1,2-b]pyridazin-2-yl)-5-methyl-1,3,4-oxa-diazole-2-carboxamide]
26 | 16.2 | 1.12 | Cc1nc(-c2ccc(F)cc2)c(-c2ccc3nc(NC(=O)c4cnn[nH]4)cn3n2)n1C [Compound 370, N-(6-(4-(4-fluorophenyl)-1,2-dimethyl-1H-imidazol-5-yl)imidazo[1,2-b]pyridazin-2-yl)-1H-1,2,3-trizole-4-carboxamide]
27 | 28.3 | 2.19 | Cc1nc(C(=O)Nc2cn3nc(-c4c(-c5ccc(F)cc5)nc(C)n4C)ccc3n2)c[nH]1 [Compound 372, N-(6-(4-(4-fluorophenyl)-1,2-dimethyl-1H-imidazol-5-yl)imidazo[1,2-b]pyridazin-2-yl)-2-methyl-1H-imidazole-4-carboxamide]
28 | 176 | 18.5 | Cc1nc(-c2ccc(F)cc2)c(-c2ccc3nc(NC(=O)c4ncc[nH]4)cn3n2)n1C [Compound 373, N-(6-(4-(4-fluorophenyl)-1,2-dimethyl-1H-imidazol-5-yl)imidazo[1,2-b]pyridazin-2-yl)-1H-imidazole-2-carboxamide]
29 | 16.3 | 1.91 | Cc1nc(-c2ccc(F)cc2)c(-c2ccc3nc(NC(=O)c4ccon4)cn3n2)n1C [Compound 375, N-(6-(4-(4-fluorophenyl)-1,2-dimethyl-1H-imidazol-5-yl)imidazo[1,2-b]pyridazin-2-yl)-3-isoxazolecarboxamide]
30 | 78.1 | 8.88 | Cc1nc(-c2ccc(F)cc2)c(-c2ccc3nc(NC(=O)[C@@H]4CCC(=O)N4)cn3n2)n1C [Compound 376, N-(6-(4-(4-fluorophenyl)-1,2-dimethyl-1H-imidazol-5-yl)imidazo[1,2-b]pyridazin-2-yl)-5-oxo-L-prolinamide]
